Measurements published in the CheMixHub ionic liquid set.
± gives the uncertainty stated by the source.

Test: xn = mol fraction of the nth substance listed

COP(=O)([O-])OC.C[N+]1(CCO)CCCC1 + CCO
100 kPa
Settings	viscosity [mPa·s]
293.15 K, x1 = 0.1077	4.74 ± 0.29
293.15 K, x1 = 0.2079	12.31 ± 0.74
293.15 K, x1 = 0.3084	32 ± 1.9
293.15 K, x1 = 0.4033	55.9 ± 3.4
293.15 K, x1 = 0.5077	123 ± 7.7
293.15 K, x1 = 0.7053	402 ± 29
298.15 K, x1 = 0.7053	295 ± 20
298.15 K, x1 = 0.8055	478 ± 35
303.15 K, x1 = 0.0561	2.02 ± 0.12
303.15 K, x1 = 0.2079	9.66 ± 0.58
303.15 K, x1 = 0.3084	23.7 ± 1.4
303.15 K, x1 = 0.5077	78.2 ± 4.8
308.15 K, x1 = 0.0561	1.73 ± 0.1
308.15 K, x1 = 0.1077	3.54 ± 0.21
308.15 K, x1 = 0.1523	5.76 ± 0.35
308.15 K, x1 = 0.3084	21.1 ± 1.3
313.15 K, x1 = 0.9053	277 ± 19
318.15 K, x1 = 0.2079	7.02 ± 0.42
318.15 K, x1 = 0.2537	10.45 ± 0.63
318.15 K, x1 = 0.4033	26.5 ± 1.6
318.15 K, x1 = 0.5077	44.7 ± 2.7
318.15 K, x1 = 1	273 ± 19
323.15 K, x1 = 0.5077	38.1 ± 2.3
323.15 K, x1 = 0.6042	60 ± 3.6
328.15 K, x1 = 0.2079	5.83 ± 0.35
328.15 K, x1 = 0.3084	12.98 ± 0.78
328.15 K, x1 = 0.6042	50.4 ± 3
333.15 K, x1 = 0.4033	17.9 ± 1.1
333.15 K, x1 = 0.7053	54.1 ± 3.3
338.15 K, x1 = 0.4033	16.24 ± 0.98
338.15 K, x1 = 0.5077	23.8 ± 1.4
338.15 K, x1 = 0.6042	35.9 ± 2.2
338.15 K, x1 = 0.8055	60.9 ± 3.7

OCCO + CCCC[n+]1ccn(C)c1.O=S(=O)([O-])C(F)(F)F
Settings	viscosity [mPa·s]
303.15 K, 100 kPa, x2 = 0	13.49 ± 0.55

CCCCCCCCCC[n+]1ccn(C)c1.[Cl-] + O
298.15 K, frequency 5e-05 MHz
Settings	electrical conductivity [S/m]
100 kPa, x1 = 0.0002846	0.126 ± 0.069
100 kPa, x1 = 0.0003693	0.163 ± 0.07
100 kPa, x1 = 0.0004125	0.177 ± 0.072
100 kPa, x1 = 0.0004683	0.205 ± 0.071
100 kPa, x1 = 0.0005331	0.235 ± 0.069
100 kPa, x1 = 0.0005997	0.262 ± 0.071
100 kPa, x1 = 0.0006609	0.294 ± 0.068
100 kPa, x1 = 0.0007347	0.32 ± 0.067
100 kPa, x1 = 0.0007922	0.347 ± 0.067
100 kPa, x1 = 0.0008678	0.375 ± 0.059
100 kPa, x1 = 0.000929	0.4 ± 0.053
100 kPa, x1 = 0.0009883	0.424 ± 0.051
100 kPa, x1 = 0.001073	0.44 ± 0.042
100 kPa, x1 = 0.001143	0.446 ± 0.035
100 kPa, x1 = 0.001186	0.45 ± 0.035
100 kPa, x1 = 0.001274	0.458 ± 0.033
100 kPa, x1 = 0.001346	0.467 ± 0.034
100 kPa, x1 = 0.001387	0.471 ± 0.033
100 kPa, x1 = 0.001452	0.479 ± 0.034
100 kPa, x1 = 0.001524	0.489 ± 0.035
100 kPa, x1 = 0.001603	0.493 ± 0.033
100 kPa, x1 = 0.001637	0.497 ± 0.033
101.3 kPa, x1 = 0.04436	4.7 ± 0.2

298.15 K, 101.3 kPa
Settings	electrical conductivity [S/m]
x1 = 6.46e-06	0.00385 ± 4e-05
x1 = 9.55e-06	0.00548 ± 6e-05
x1 = 1.262e-05	0.00708 ± 7e-05
x1 = 1.582e-05	0.00872 ± 9e-05
x1 = 1.894e-05	0.0103 ± 0.0001
x1 = 2.2e-05	0.0118 ± 0.00012
x1 = 2.507e-05	0.01334 ± 0.00013
x1 = 2.8e-05	0.0148 ± 0.00015
x1 = 3.092e-05	0.0162 ± 0.00016
x1 = 3.384e-05	0.0176 ± 0.00018

CCCCn1cc[n+](C)c1C.O=S(=O)([N-]S(=O)(=O)C(F)(F)F)C(F)(F)F + CC[N+](C)(CC)CCOC.O=S(=O)([N-]S(=O)(=O)C(F)(F)F)C(F)(F)F
100 kPa, x2 = 0
Settings	electrical conductivity [S/m]
298.15 K	0.237 ± 0.014
308.15 K	0.379 ± 0.023
323.15 K	0.665 ± 0.04
328.15 K	0.777 ± 0.047

[N-]=C=S.[NH4+] + CC(=O)[O-].CC[n+]1ccn(C)c1
101 kPa
Settings	electrical conductivity [S/m]	viscosity [mPa·s]
298.15 K, x1 = 0.3001	0.344 ± 0.011	194.6 ± 6.6
298.15 K, x1 = 0.3199	0.353 ± 0.011	195.4 ± 6.6
303.15 K, x1 = 0.1002	0.371 ± 0.012	117.6 ± 3.6
303.15 K, x1 = 0.1998	0.386 ± 0.012	139.3 ± 4.4
303.15 K, x1 = 0.3001	0.447 ± 0.014	141.9 ± 4.4
308.15 K, x1 = 0.1998	0.491 ± 0.016	104 ± 2.9
308.15 K, x1 = 0.2514	0.525 ± 0.017	–
308.15 K, x1 = 0.3413	0.587 ± 0.019	–
313.15 K, x1 = 0.3413	0.807 ± 0.026	81.7 ± 2
318.15 K, x1 = 0.1998	0.852 ± 0.027	61.5 ± 1.5
328.15 K, x1 = 0.1002	–	34.29 ± 0.88
328.15 K, x1 = 0.3199	–	39.29 ± 0.91
333.15 K, x1 = 0.02	–	25.64 ± 0.68
333.15 K, x1 = 0.1002	–	28.06 ± 0.72
333.15 K, x1 = 0.1998	–	31.2 ± 0.78
333.15 K, x1 = 0.3001	–	31.43 ± 0.74

O=S(=O)([N-]S(=O)(=O)C(F)(F)F)C(F)(F)F.[Li+] + COC(=O)OC
298.1 K, 100 kPa, x1 = 0.333
Settings	electrical conductivity [S/m]	viscosity [mPa·s]
–	0.12 ± 0.01	53.7 ± 1.6

CCCCCCCCCCCCCC[P+](CCCCCC)(CCCCCC)CCCCCC.O=[N+]([O-])c1c[n-]cn1 + COCCOCCOCCOCCOC
viscosity [mPa·s], 100 kPa
Settings	278.15 K	283.15 K	303.15 K
x2 = 0.189	1503 ± 110	1036 ± 66	–
x2 = 0.404	–	–	107 ± 2

CN1CCN(C)C1=O + CCCCCC[n+]1ccn(C)c1.[Cl-]
100 kPa
Settings	viscosity [mPa·s]
288.15 K, x2 = 0	2.368 ± 0.097
288.15 K, x2 = 0.1007	6.33 ± 0.28
303.15 K, x2 = 0.1999	9.99 ± 0.43
308.15 K, x2 = 0	1.616 ± 0.066
308.15 K, x2 = 0.1999	8.56 ± 0.36
308.15 K, x2 = 0.3856	44.3 ± 1.9
318.15 K, x2 = 0.6969	182 ± 10
323.15 K, x2 = 0.1007	2.8 ± 0.12
323.15 K, x2 = 0.2985	12.78 ± 0.53
323.15 K, x2 = 0.4985	45.7 ± 1.9
328.15 K, x2 = 0	1.195 ± 0.049
333.15 K, x2 = 0.2985	9.67 ± 0.4

O=C(O)c1cccnc1 + CCCC[n+]1ccn(C)c1.[Br-] + O
viscosity [mPa·s], 100 kPa
Settings	293.15 K	298.15 K	303.15 K	308.15 K	313.15 K	318.15 K
x1 = 0.0002684, x2 = 0	1.015 ± 0.031	0.903 ± 0.031	0.807 ± 0.031	0.734 ± 0.031	0.666 ± 0.031	0.61 ± 0.031
x1 = 0.0002711, x2 = 0.0008999	1.035 ± 0.032	0.92 ± 0.031	0.824 ± 0.031	0.754 ± 0.031	0.677 ± 0.031	0.62 ± 0.031
x1 = 0.0002757, x2 = 0.001798	1.06 ± 0.032	0.94 ± 0.031	0.842 ± 0.031	0.759 ± 0.031	0.69 ± 0.031	0.632 ± 0.031
x1 = 0.0002802, x2 = 0.002695	1.071 ± 0.032	1.002 ± 0.031	0.906 ± 0.031	0.796 ± 0.031	0.75 ± 0.031	0.681 ± 0.031
x1 = 0.0005421, x2 = 0	1.018 ± 0.031	0.905 ± 0.031	0.809 ± 0.031	0.737 ± 0.031	0.669 ± 0.031	0.614 ± 0.031
x1 = 0.0005475, x2 = 0.0008997	1.039 ± 0.032	0.923 ± 0.031	0.827 ± 0.031	0.756 ± 0.031	0.678 ± 0.031	0.621 ± 0.031
x1 = 0.0005493, x2 = 0.001798	1.063 ± 0.032	0.942 ± 0.031	0.843 ± 0.031	0.761 ± 0.031	0.691 ± 0.031	0.633 ± 0.031
x1 = 0.0005547, x2 = 0.002694	1.074 ± 0.032	1.004 ± 0.031	0.908 ± 0.031	0.797 ± 0.031	0.751 ± 0.031	0.682 ± 0.031
x1 = 0.0008084, x2 = 0	1.021 ± 0.031	0.908 ± 0.031	0.812 ± 0.031	0.742 ± 0.031	0.673 ± 0.031	0.617 ± 0.031
x1 = 0.0008166, x2 = 0.0008994	1.042 ± 0.032	0.925 ± 0.031	0.829 ± 0.031	0.758 ± 0.031	0.68 ± 0.031	0.622 ± 0.031
x1 = 0.0008283, x2 = 0.001797	1.066 ± 0.032	0.945 ± 0.031	0.845 ± 0.031	0.763 ± 0.031	0.693 ± 0.031	0.634 ± 0.031
x1 = 0.0008364, x2 = 0.002693	1.077 ± 0.032	1.007 ± 0.031	0.91 ± 0.031	0.799 ± 0.031	0.753 ± 0.031	0.683 ± 0.031
x1 = 0.001084, x2 = 0	1.024 ± 0.031	0.911 ± 0.031	0.814 ± 0.031	0.746 ± 0.031	0.677 ± 0.031	0.62 ± 0.031
x1 = 0.001093, x2 = 0.0008992	1.044 ± 0.032	0.927 ± 0.031	0.83 ± 0.031	0.759 ± 0.031	0.681 ± 0.031	0.624 ± 0.031
x1 = 0.001104, x2 = 0.001797	1.069 ± 0.032	0.947 ± 0.031	0.848 ± 0.031	0.765 ± 0.031	0.694 ± 0.031	0.635 ± 0.031
x1 = 0.001114, x2 = 0.002693	1.08 ± 0.032	1.009 ± 0.031	0.912 ± 0.031	0.801 ± 0.031	0.754 ± 0.031	0.684 ± 0.031
x1 = 0.001351, x2 = 0	1.027 ± 0.032	0.913 ± 0.031	0.816 ± 0.031	0.75 ± 0.031	0.681 ± 0.031	0.624 ± 0.031
x1 = 0.001363, x2 = 0.000899	1.047 ± 0.032	0.93 ± 0.031	0.833 ± 0.031	0.762 ± 0.031	0.683 ± 0.031	0.625 ± 0.031
x1 = 0.001377, x2 = 0.001796	1.071 ± 0.032	0.95 ± 0.031	0.85 ± 0.031	0.767 ± 0.031	0.696 ± 0.031	0.636 ± 0.031
x1 = 0.00139, x2 = 0.002692	1.083 ± 0.032	1.012 ± 0.031	0.915 ± 0.031	0.803 ± 0.031	0.756 ± 0.031	0.686 ± 0.031
x1 = 0.001619, x2 = 0	1.03 ± 0.032	0.916 ± 0.031	0.819 ± 0.031	0.754 ± 0.031	0.685 ± 0.031	0.628 ± 0.031
x1 = 0.001635, x2 = 0.0008987	1.05 ± 0.032	0.932 ± 0.031	0.835 ± 0.031	0.763 ± 0.031	0.684 ± 0.031	0.619 ± 0.031
x1 = 0.001652, x2 = 0.001796	1.074 ± 0.032	0.952 ± 0.031	0.852 ± 0.031	0.768 ± 0.031	0.697 ± 0.031	0.638 ± 0.031
x1 = 0.001666, x2 = 0.002691	1.086 ± 0.032	1.014 ± 0.031	0.917 ± 0.031	0.805 ± 0.031	0.757 ± 0.031	0.687 ± 0.031
